Experimental data taken from patent US11458123B2 (Arvinas, Inc., priority 2016, dated 2022).

Test system: tau protein
Assay: Tau protein in vitro degradation assay (Western blot, Tau-13 antibody)
Format: cell-based, human
Settings: SK-N-SH cells; 72 hours of incubation; tested at 300 nM, 100 nM, 33 nM and 11 nM; Western blot, Tau-13 antibody
How it was run: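 SK-N-SH cells, seeded ≥18 h beforehand, were incubated 72 h with tau PROTACs at 1000, 300 and 100 nM or at 300, 100, 33 and 11 nM. Lysates in protease-inhibitor buffer were resolved by SDS-PAGE; tau quantified by Western blot with Tau-13 antibody recognising all human tau forms.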

Compound	Degradation activity* (highest amount of degradation observed at any dosage; tau protein remaining)	Degradation activity (tau protein remaining; highest amount of degradation observed at any dosage)
Cn1c2ccncc2c2ccc(-c3ccc(OC4CC5(C4)CN(CCCCOCCCCOc4ccc6c(c4)C(=O)N(C4CCC(=O)NC4=O)C6=O)C5)nc3)cc21 (stereo not drawn) [Compound 107, 2-(2,6-dioxopiperidin-3-yl)-5-(4-(4-(6-((5-(5-methyl-5H-pyrido[4,3-b]indol-7-yl)pyridin-2-yl)oxy)-2-azaspiro[3.3]heptan-2-yl)butoxy)butoxy)isoindoline-1,3-dione]	C (>80% tau protein remaining after 72 hours of incubation with the test compound)	–
Cn1c2ccncc2c2ccc(-c3ccc(OC4CN(C(=O)C56CC(CCCCCCCOc7ccc8c(c7)C(=O)N(C7CCC(=O)NC7=O)C8=O)(C5)C6)C4)nc3)cc21 (stereo not drawn) [Compound 184, 2-(2,6-dioxopiperidin-3-yl)-5-((7-(3-(3-((5-(5-methyl-5H-pyrido[4,3-b]indol-7-yl)pyridin-2-yl)oxy)azetidine-1-carbonyl)bicyclo[1.1.1]pentan-1-yl)heptyl)oxy)isoindoline-1,3-dione]	–	A (≤50% tau protein remaining after 72 hours of incubation with the test compound)
Cn1c2ccncc2c2ccc(-c3ccc(O[C@H]4C[C@H](Oc5cnc(CCCCCCOc6ccc7c(c6)C(=O)N(C6CCC(=O)NC6=O)C7=O)nc5)C4)nc3)cc21 (stereo partly drawn) [Compound 151, 2-(2,6-dioxopiperidin-3-yl)-5-((6-(5-((1r,3r)-3-((5-(5-methyl-5H-pyrido[4,3-b]indol-7-yl)pyridin-2-yl)oxy)cyclobutoxy)pyrimidin-2-yl)hexyl)oxy)isoindoline-1,3-dione]	B (≤80% and >50% tau protein remaining after 72 hours of incubation with the test compound)	–
Cn1c2ccncc2c2ccc(-c3ccc(O[C@H]4C[C@H](OCCCC(F)(F)CN5CC6(C5)CN(c5ccc7c(c5)C(=O)N(C5CCC(=O)NC5=O)C7=O)C6)C4)nc3)cc21 (stereo partly drawn) [Compound 150, 5-(6-(2,2-difluoro-5-((1r,3r)-3-((5-(5-methyl-5H-pyrido[4,3-b]indol-7-yl)pyridin-2-yl)oxy)cyclobutoxy)pentyl)-2,6-diazaspiro[3.3]heptan-2-yl)-2-(2,6-dioxopiperidin-3-yl)isoindoline-1,3-dione]	B (≤80% and >50% tau protein remaining after 72 hours of incubation with the test compound)	–
Cn1c2ccncc2c2ccc(-c3ccc(O[C@H]4C[C@H](N(C)C5CC6(C5)CN(CCCCCOc5ccc7c(c5)C(=O)N(C5CCC(=O)NC5=O)C7=O)C6)C4)nc3)cc21 (stereo partly drawn) [Compound 126, 2-(2,6-dioxopiperidin-3-yl)-5-((5-(6-(methyl((1r,3r)-3-((5-(5-methyl-5H-pyrido[4,3-b]indol-7-yl)pyridin-2-yl)oxy)cyclobutyl)amino)-2-azaspiro[3.3]heptan-2-yl)pentyl)oxy)isoindoline-1,3-dione]	B (≤80% and >50% tau protein remaining after 72 hours of incubation with the test compound)	–
Cn1c2ccncc2c2ccc(-c3ccc(O[C@H]4C[C@H](OCCOCCOCCOCCOc5ccc6c(c5)C(=O)N(C5CCC(=O)NC5=O)C6=O)C4)nc3)cc21 (stereo partly drawn) [Compound 70, 2-(2,6-dioxopiperidin-3-yl)-5-(2-(2-(2-(2-((1r,3r)-3-((5-(5-methyl-5H-pyrido[4,3-b]indol-7-yl)pyridin-2-yl)oxy)cyclobutoxy)ethoxy)ethoxy)ethoxy)ethoxy)isoindoline-1,3-dione]	A (≤50% tau protein remaining after 72 hours of incubation with the test compound)	–
